According to the NIST ThermoML archive (doi:10.1021/je500431h):

Test: xn = mol fraction of the nth substance listed
Details: 101 kPa, Liquid; for mass density: Pycnometric method; for electrical conductivity: conductivity meter LF 340 and a standard conductivity cell TetraCon

C=CCn1cc[n+](CCOC)c1.O=S(=O)([N-]S(=O)(=O)C(F)(F)F)C(F)(F)F + O=S(=O)([N-]S(=O)(=O)C(F)(F)F)C(F)(F)F.[Li+]
Details	electrical conductivity [S/m]	mass density [kg/m3]	viscosity [mPa·s]
308 K, x2 = 0.176	–	1480.1	56.2
308 K, x2 = 0.2508	–	1505.3	72.2
308 K, x2 = 0.3254	–	1525.3	116.4
308.2 K, x2 = 0.176	0.3	–	–
308.2 K, x2 = 0.4001	0.0856	–	–
308.7 K, x2 = 0	0.546	–	–
308.7 K, x2 = 0.2508	0.228	–	–
308.8 K, x2 = 0.3254	0.16	–	–
308.9 K, x2 = 0.1007	0.425	–	–
309 K, x2 = 0	–	1437	23.7
309 K, x2 = 0.1007	–	1459.7	38
309.2 K, x2 = 0.4001	–	–	221.6
309.24 K, x2 = 0.4001	–	1551.1	–
313 K, x2 = 0.176	–	1475.4	44.4
313 K, x2 = 0.2508	–	1500.4	57.1
313 K, x2 = 0.3254	–	1520.3	89.4
313.3 K, x2 = 0	0.627	–	–
313.4 K, x2 = 0.4001	0.113	–	–
313.5 K, x2 = 0.3254	0.2	–	–
313.9 K, x2 = 0.176	0.372	–	–
314 K, x2 = 0	–	1432.3	20.3
314 K, x2 = 0.4001	–	1546.3	168.3
314.4 K, x2 = 0.1007	0.514	–	–
314.4 K, x2 = 0.2508	0.284	–	–
315 K, x2 = 0.1007	–	1453.9	27.9
317 K, x2 = 0	–	1429.6	17.8
317 K, x2 = 0.2508	–	1496.4	47.8
317 K, x2 = 0.3254	–	1516.3	75.1
317.9 K, x2 = 0.2508	0.327	–	–
318 K, x2 = 0.176	–	1470.7	35.8
318 K, x2 = 0.4001	–	1542.3	138.5
318.1 K, x2 = 0	0.72	–	–
318.1 K, x2 = 0.4001	0.141	–	–
319 K, x2 = 0.3254	0.248	–	–
319.2 K, x2 = 0.1007	0.596	–	–
319.5 K, x2 = 0.1007	–	1449.6	22.8
319.6 K, x2 = 0.176	0.453	–	–
322.4 K, x2 = 0.176	0.493	–	–
323 K, x2 = 0.176	–	1466	29.6
323 K, x2 = 0.3254	–	1510.4	56.8
323.3 K, x2 = 0	0.828	–	–
323.5 K, x2 = 0	–	1423.5	14.6
323.9 K, x2 = 0.3254	0.3	–	–
324 K, x2 = 0.2508	–	1489.5	37.4
324 K, x2 = 0.4001	–	1536.2	100.9
324.1 K, x2 = 0.4001	0.183	–	–
324.4 K, x2 = 0.1007	0.694	–	–
324.6 K, x2 = 0.2508	0.41	–	–
325.2 K, x2 = 0.1007	–	1444.2	19.6
327 K, x2 = 0.3254	–	1506.5	49
327.2 K, x2 = 0.1007	–	1442.3	17.7
327.2 K, x2 = 0.176	–	1462	25.4
327.5 K, x2 = 0.4001	0.214	–	–
327.9 K, x2 = 0	0.935	–	–
328 K, x2 = 0	–	1419.4	13.1
328 K, x2 = 0.2508	–	1485.6	32.3
328 K, x2 = 0.4001	–	1532.2	82.1
328.5 K, x2 = 0.2508	0.467	–	–
328.7 K, x2 = 0.176	0.588	–	–
328.8 K, x2 = 0.3254	0.353	–	–
328.9 K, x2 = 0.1007	0.778	–	–
332.9 K, x2 = 0	1.06	–	–
333.1 K, x2 = 0.3254	0.405	–	–
333.4 K, x2 = 0.2508	0.535	–	–
334 K, x2 = 0	–	1413.9	11.2
334 K, x2 = 0.1007	0.885	–	–
334 K, x2 = 0.176	–	1455.7	20.4
334 K, x2 = 0.2508	–	1479.8	25.9
334 K, x2 = 0.3254	–	1499.7	37.1
334 K, x2 = 0.4001	–	1526.3	63.2
334.2 K, x2 = 0.1007	–	1435.7	15.3
334.3 K, x2 = 0.4001	0.275	–	–
334.5 K, x2 = 0.176	0.691	–	–
337 K, x2 = 0.3254	–	1496.9	32
337.4 K, x2 = 0.2508	0.6	–	–
337.6 K, x2 = 0	1.18	–	–
338 K, x2 = 0.176	–	1452.1	18.2
338 K, x2 = 0.2508	–	1475.9	22.9
338.1 K, x2 = 0.1007	–	1432	12.9
338.5 K, x2 = 0	–	1409.9	10
338.5 K, x2 = 0.3254	0.474	–	–
338.9 K, x2 = 0.176	0.76	–	–
339 K, x2 = 0.1007	0.986	–	–
339 K, x2 = 0.4001	–	1521.4	54.2
339.3 K, x2 = 0.4001	0.323	–	–
343 K, x2 = 0	1.33	–	–
343 K, x2 = 0.3254	–	1491.1	27.3
343.2 K, x2 = 0.1007	–	1427.3	11.4
343.3 K, x2 = 0.3254	0.539	–	–
343.5 K, x2 = 0.2508	0.698	–	–
343.8 K, x2 = 0.176	0.858	–	–
344 K, x2 = 0	–	1404.9	8.8
344 K, x2 = 0.176	–	1446.6	15.4
344 K, x2 = 0.4001	–	1516.5	44.8
344.4 K, x2 = 0.4001	0.385	–	–
344.5 K, x2 = 0.1007	1.11	–	–
345 K, x2 = 0.2508	–	1469.2	19.2
347 K, x2 = 0.3254	–	1487.3	24
348 K, x2 = 0	–	1401.3	8.2
348.1 K, x2 = 0	1.48	–	–
348.2 K, x2 = 0.2508	0.784	–	–
348.3 K, x2 = 0.1007	1.19	–	–
348.5 K, x2 = 0.3254	0.62	–	–
348.6 K, x2 = 0.176	0.954	–	–
348.7 K, x2 = 0.4001	0.436	–	–
349 K, x2 = 0.1007	–	1421.9	10.3
349 K, x2 = 0.176	–	1442	13.7
349 K, x2 = 0.2508	–	1465.4	17.1
349 K, x2 = 0.4001	–	1511.6	38
352 K, x2 = 0	1.6	–	–
352.5 K, x2 = 0.2508	0.858	–	–
353.3 K, x2 = 0.3254	0.694	–	–
353.5 K, x2 = 0.4001	0.498	–	–
354.2 K, x2 = 0	–	1395.8	7
354.5 K, x2 = 0.1007	–	1416.9	9.5
354.9 K, x2 = 0.1007	1.35	–	–
354.9 K, x2 = 0.176	1.09	–	–
355 K, x2 = 0.176	–	1436.6	11.9
355 K, x2 = 0.2508	–	1459.8	14.6
355 K, x2 = 0.4001	–	1505.8	31.7
356 K, x2 = 0.3254	–	1478.8	18.9
